Measured values published in article PMC8213057, “Targeting ALK2: An Open Science Approach to Developing Therapeutics for the Treatment of Diffuse Intrinsic Pontine Glioma” (Journal of Medicinal Chemistry, 2020).
pIC50: −log10 of the molar value. Several values for one entry are separate records, joined by “and”; a condition that tells them apart may be missing. Equal values may be shown once.

Columns and labels:
[1] = system: NLK
[2] = target: T1, ALK2/ACVR1 (Homo sapiens, UniProt Q04771); assay type: biochemical; conditions: biochemical ALK5 IC50 / ALK2 IC50
T1 construct: purchased Reaction Biology Corporation
T1 sequence (Q04771 21-509): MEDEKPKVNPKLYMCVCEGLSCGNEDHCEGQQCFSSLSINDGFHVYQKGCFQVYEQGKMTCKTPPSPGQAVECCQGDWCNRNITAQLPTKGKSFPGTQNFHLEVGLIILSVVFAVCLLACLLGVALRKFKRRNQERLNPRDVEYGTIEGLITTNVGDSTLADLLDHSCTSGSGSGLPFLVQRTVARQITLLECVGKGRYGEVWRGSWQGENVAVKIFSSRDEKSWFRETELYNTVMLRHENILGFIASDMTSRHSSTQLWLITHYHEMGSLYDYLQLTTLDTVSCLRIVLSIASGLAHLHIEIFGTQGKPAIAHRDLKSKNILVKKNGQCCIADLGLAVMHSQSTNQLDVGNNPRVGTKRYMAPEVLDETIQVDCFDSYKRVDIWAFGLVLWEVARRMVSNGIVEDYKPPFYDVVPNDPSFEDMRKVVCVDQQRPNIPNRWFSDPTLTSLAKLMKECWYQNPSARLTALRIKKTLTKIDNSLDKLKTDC

[3] = target: T2, DDR1 (Homo sapiens, UniProt Q08345); experiment: 375-member kinase panel; assay type: biochemical; conditions: Run 1, Run 2
T2 construct: purchased Reaction Biology Corporation

[4] = target: PKN1/PRK1 (Homo sapiens, UniProt Q16512); conditions: 1 μM; Run 1, Run 2
[5] = target: SYK (Homo sapiens, UniProt P43405); conditions: 1 μM; Run 1, Run 2
[6] = in vivo; conditions: female, CB17 SCID, mouse, po, 10 mg/kg
[7] = in vitro; conditions: human, Caco-2, pH 7.4
[8] = target: T3, DRAK1/STK17A (Homo sapiens, UniProt Q9UEE5); experiment: biochemical; conditions: read-out: % enzyme activity, 1 μM; Run 1, Run 2
T3 sequence (Q9UEE5 1-414): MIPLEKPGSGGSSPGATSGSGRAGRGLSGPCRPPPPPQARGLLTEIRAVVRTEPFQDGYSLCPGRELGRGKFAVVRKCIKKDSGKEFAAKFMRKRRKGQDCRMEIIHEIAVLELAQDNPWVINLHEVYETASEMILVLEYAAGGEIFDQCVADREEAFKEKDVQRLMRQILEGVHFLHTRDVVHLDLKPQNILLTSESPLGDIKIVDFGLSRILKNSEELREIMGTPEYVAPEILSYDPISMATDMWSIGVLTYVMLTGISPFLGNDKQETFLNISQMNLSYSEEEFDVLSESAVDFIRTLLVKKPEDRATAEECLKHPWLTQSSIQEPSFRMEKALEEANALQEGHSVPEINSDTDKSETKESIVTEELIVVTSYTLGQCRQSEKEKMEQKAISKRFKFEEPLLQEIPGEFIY

[9] = target: T4, GRK3 (Homo sapiens, UniProt P35626); experiment: biochemical; conditions: read-out: % enzyme activity, 1 μM; Run 1, Run 2
T4 sequence (P35626 1-688): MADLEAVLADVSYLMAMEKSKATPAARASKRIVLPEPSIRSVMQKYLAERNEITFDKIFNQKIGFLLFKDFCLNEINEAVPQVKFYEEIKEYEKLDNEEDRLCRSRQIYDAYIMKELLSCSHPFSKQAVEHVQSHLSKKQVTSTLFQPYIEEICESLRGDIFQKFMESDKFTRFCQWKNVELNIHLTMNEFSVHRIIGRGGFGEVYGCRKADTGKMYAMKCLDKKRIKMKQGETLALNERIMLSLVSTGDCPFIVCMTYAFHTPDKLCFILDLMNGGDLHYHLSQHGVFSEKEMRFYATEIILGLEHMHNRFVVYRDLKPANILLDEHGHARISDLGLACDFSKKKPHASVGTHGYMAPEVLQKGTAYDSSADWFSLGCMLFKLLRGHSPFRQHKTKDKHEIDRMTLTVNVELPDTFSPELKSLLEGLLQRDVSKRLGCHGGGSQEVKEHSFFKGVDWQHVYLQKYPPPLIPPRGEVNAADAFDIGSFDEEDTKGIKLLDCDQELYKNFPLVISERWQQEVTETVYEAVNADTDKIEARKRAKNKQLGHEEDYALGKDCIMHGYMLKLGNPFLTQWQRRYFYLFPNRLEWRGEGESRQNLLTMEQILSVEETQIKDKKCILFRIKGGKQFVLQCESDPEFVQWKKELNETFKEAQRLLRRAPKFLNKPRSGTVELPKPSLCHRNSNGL

[10] = target: T5, TLK1 (Homo sapiens, UniProt Q9UKI8); experiment: biochemical; conditions: read-out: % enzyme activity, 1 μM; Run 1, Run 2
T5 sequence (Q9UKI8 1-766): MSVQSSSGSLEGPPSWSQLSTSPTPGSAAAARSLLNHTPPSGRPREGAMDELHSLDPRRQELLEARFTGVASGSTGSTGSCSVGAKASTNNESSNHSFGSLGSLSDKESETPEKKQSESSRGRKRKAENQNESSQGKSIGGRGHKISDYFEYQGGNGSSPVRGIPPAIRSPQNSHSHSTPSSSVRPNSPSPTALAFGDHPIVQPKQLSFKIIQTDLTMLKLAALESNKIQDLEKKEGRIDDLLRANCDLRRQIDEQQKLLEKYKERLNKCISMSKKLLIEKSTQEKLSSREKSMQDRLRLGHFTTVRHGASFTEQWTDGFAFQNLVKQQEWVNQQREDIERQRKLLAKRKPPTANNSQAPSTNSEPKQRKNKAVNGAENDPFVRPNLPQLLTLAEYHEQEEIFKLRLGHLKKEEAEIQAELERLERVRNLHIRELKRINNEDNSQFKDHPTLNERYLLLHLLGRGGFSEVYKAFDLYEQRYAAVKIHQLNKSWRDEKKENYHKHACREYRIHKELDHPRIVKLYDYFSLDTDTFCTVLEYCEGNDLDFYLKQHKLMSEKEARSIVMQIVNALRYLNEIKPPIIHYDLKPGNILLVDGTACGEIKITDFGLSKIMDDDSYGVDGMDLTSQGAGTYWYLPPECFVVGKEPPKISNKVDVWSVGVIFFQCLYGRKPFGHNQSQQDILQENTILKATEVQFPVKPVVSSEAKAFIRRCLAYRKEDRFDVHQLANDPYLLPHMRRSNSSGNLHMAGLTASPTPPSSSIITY

[11] = target: CYP2B6 (Homo sapiens, UniProt P20813); conditions: read-out: CYP2B6 IC50; human liver microsomes
[12] = target: MNK2 (Homo sapiens, UniProt Q9HBH9); conditions: 1 μM; Run 1, Run 2
Sequence of MNK2 (Q9HBH9 whole entry): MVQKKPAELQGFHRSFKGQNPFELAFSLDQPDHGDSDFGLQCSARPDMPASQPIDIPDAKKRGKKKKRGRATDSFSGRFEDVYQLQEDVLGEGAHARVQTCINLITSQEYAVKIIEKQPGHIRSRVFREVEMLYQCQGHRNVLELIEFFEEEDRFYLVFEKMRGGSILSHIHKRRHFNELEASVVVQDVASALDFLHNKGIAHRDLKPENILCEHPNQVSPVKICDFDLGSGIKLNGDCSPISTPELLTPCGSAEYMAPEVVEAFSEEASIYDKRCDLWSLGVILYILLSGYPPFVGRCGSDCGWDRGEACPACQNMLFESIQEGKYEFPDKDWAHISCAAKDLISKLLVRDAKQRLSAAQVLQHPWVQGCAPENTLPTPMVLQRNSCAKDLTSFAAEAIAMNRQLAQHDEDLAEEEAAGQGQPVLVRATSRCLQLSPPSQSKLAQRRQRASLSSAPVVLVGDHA

Sequence of PKN1/PRK1 (Q16512 whole entry): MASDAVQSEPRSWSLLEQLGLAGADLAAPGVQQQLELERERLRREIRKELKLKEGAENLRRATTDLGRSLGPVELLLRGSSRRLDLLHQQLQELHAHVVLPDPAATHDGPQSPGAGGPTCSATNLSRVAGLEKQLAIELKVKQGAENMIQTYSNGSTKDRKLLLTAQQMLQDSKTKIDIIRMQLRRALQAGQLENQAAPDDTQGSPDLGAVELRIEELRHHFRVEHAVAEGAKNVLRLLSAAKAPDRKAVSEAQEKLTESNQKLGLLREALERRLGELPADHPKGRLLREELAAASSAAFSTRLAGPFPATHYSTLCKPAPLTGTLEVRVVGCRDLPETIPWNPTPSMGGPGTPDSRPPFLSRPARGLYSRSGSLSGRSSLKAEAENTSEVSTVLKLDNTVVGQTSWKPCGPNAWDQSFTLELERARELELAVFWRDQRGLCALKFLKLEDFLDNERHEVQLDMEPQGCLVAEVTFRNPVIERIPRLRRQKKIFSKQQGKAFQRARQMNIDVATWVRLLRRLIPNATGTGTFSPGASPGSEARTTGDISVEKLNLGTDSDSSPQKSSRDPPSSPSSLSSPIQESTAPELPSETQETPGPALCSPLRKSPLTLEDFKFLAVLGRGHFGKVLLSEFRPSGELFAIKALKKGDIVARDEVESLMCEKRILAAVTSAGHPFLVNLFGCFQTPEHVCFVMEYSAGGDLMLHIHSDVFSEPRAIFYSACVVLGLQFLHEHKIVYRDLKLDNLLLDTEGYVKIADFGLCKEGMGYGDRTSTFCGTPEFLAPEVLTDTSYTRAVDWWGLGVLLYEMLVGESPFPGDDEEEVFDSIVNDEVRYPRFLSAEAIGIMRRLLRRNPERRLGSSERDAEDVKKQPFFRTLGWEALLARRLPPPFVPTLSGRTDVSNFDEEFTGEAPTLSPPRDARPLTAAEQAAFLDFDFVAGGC
T2 sequence (Q08345 19-913): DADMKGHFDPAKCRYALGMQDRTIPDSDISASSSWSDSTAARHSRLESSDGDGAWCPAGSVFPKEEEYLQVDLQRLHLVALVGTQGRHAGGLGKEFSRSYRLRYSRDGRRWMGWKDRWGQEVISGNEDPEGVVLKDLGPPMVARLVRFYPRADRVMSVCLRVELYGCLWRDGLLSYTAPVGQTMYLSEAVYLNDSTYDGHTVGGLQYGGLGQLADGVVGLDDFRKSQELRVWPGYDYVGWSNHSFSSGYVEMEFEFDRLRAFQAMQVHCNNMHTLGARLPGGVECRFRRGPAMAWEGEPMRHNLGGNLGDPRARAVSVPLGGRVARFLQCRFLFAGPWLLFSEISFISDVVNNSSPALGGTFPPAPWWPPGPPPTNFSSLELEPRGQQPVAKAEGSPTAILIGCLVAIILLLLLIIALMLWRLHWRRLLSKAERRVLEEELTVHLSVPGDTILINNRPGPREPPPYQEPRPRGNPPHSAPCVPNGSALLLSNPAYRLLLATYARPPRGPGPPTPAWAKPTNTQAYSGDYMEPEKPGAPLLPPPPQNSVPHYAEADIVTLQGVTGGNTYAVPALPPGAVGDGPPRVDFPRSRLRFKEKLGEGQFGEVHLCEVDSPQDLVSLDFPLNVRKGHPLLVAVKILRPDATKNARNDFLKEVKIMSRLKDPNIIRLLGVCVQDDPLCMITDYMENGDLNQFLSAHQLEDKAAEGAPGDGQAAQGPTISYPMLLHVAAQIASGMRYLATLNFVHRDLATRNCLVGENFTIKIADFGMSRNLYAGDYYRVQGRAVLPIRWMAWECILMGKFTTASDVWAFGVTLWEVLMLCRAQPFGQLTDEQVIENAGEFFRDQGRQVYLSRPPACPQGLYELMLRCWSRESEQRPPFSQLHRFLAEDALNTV
Sequence of CYP2B6 (P20813 whole entry): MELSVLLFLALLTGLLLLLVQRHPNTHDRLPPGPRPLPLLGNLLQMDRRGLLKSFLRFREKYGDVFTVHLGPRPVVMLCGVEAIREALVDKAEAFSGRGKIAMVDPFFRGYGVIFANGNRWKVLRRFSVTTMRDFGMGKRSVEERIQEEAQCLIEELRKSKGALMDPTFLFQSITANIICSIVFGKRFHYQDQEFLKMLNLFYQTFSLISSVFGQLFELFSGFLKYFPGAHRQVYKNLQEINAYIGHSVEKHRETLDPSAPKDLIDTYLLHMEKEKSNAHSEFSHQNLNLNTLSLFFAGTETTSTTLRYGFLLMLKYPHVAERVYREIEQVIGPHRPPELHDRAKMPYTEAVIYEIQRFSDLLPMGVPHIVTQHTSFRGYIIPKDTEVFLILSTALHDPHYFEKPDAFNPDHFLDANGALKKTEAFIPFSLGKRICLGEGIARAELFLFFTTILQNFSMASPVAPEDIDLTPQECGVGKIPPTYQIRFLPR

Structure (SMILES) | % enzyme activity at 1 μM [1] | Fold Selectivity (ALK5/ALK2) [2] | % enzyme activity ([3]; 1 μM) | remaining activity at 1 µM ([3]; read-out: % enzyme activity, 1 μM) | % enzyme activity [4] | % enzyme activity [5] | half-life at 24 h [6] | efflux ratio [7] | remaining activity at 1 µM [8] | remaining activity at 1 µM [9] | remaining activity at 1 µM [10] | pIC50 [11] | % enzyme activity [12]
COc1cc(-c2cncc(-c3ccc(N4CCN(C)CC4)cc3)c2C)cc(F)c1C(N)=O [Compound 26a, 2-Fluoro-6-methoxy-4-(4-methyl-5-(4-(4-methylpiperazin-1-yl)phenyl)pyridin-3-yl)benzamide] | 22% and 20.8% | 350 | 31.23% | 32.1% | 96.76% | 100.12% | 2.56 h | < 3 | 96.4% | 94.4% | 108% | – | –
COc1cc(-c2cncc(-c3ccc(N4C[C@@H](C)N(C)[C@@H](C)C4)cc3)c2C)cc(F)c1C(N)=O [Compound 26c, 2-Fluoro-6-methoxy-4-(4-methyl-5-(4-((3R,5S)-3,4,5-trimethylpiperazin-1-yl)phenyl)pyridin-3-yl)benzamide] | 50.4% and 47.7% | – | – | – | 96.39% | 101.24% | – | – | 96.6% | 96.1% | 104% | < 4.30 | 68.28%
